Data taken from patent US5998406A, “Oxazolidinone derivatives and pharmaceutical compositions” (Pharmacia & Upjohn Company, priority 1998, dated 1999).
≈ marks a conversion by molar mass, not a printed value.

Legend:
Format in all cases: cell-based
S. aureus, culture 9213 = assay: MIC, standard agar dilution, S. aureus culture 9213; details: Staphylococcus aureus, CULTURE9213, Mueller Hinton agar, overnight at 35 C, read-out: SAUR 9213 MIC
Method: (§1) The in vitro MICs of test compounds are determined by a standard agar dilution method. A stock drug solution of each analog is prepared in the preferred solvent, usually DMSO:H2 O(1:3). Serial 2-fold dilutions of each sample are made using 1.0 ml aliquots of sterile distilled water. To each 1.0 ml aliquot of drug is added 9 ml of molten Mueller Hinton agar medium. The drug-supplemented agar is mixed, poured into 15×100 mm petri dishes, and allowed to solidify and dry prior to inoculation.
(§2) Vials of each of the test organisms are maintained frozen in the vapor phase of a liquid nitrogen freezer. Test cultures are grown overnight at 35 C. on the medium appropriate for the organism. Colonies are harvested with a sterile swab, and cell suspensions are prepared in Trypticase Soy broth (TSB) to equal the turbidity of a 0.5 McFarland standard. A 1:20 dilution of each suspension is made in TSB. The plates containing the drug supplemented agar are inoculated with a 0.001 ml drop of the cell suspension using a Steers replicator, yielding approximately 10^4 to 10^5 cells per spot. The plates are incubated overnight at 35 C.
(§3) Following incubation the Minimum Inhibitory Concentration (MIC μg/ml), the lowest concentration of drug that inhibits visible growth of the organism, is read and recorded.
^a) S. aureus, culture 9213

[1] = system: S. epidermidis, culture 12084; assay: MIC, standard agar dilution, S. epidermidis culture 12084; details: Staphylococcus epidermidis, CULTURE12084, Mueller Hinton agar, overnight at 35 C, read-out: SEPI 12084 MIC
Method: as §1, §2, §3
^b) S. epidermidis, culture 12084

[2] = system: E. faecalis, culture 9217; assay: MIC, standard agar dilution, E. faecalis culture 9217; details: Enterococcus faecalis, CULTURE9217, Mueller Hinton agar, overnight at 35 C, read-out: EFAE 9217 MIC
Method: as §1, §2, §3
^c) E. faecalis, culture 9217

[3] = system: S. pueumoniae, culture 9912; assay: MIC, standard agar dilution, S. pueumoniae culture 9912; details: Mueller Hinton agar, overnight at 35 C, read-out: SPNE 9912 MIC
Method: as §1, §2, §3
^d) S. pueumoniae, culture 9912

[4] = system: H. influenzae, culture 30063; assay: MIC, standard agar dilution, H. influenzae culture 30063; details: Haemophilus influenzae, CULTURE30063, Mueller Hinton agar, overnight at 35 C, read-out: HINF 30063 MIC
Method: as §1, §2, §3
^e) H. influenzae, culture 30063

[5] = system: M. catarrhalis, culture 30610; assay: MIC, standard agar dilution, M. catarrhalis culture 30610; details: Moraxella catarrhalis, CULTURE30610, Mueller Hinton agar, overnight at 35 C, read-out: MCAT 30610 MIC
Method: as §1, §2, §3
^f) M. catarrhalis, culture 30610

| MIC (S. aureus, culture 9213) [µg/mL] | MIC [1] [µg/mL] | MIC [2] [µg/mL] | MIC [3] [µg/mL] | MIC [4] [µg/mL] | MIC [5] [µg/mL] | SMILES |
| --- | --- | --- | --- | --- | --- | --- |
| 4 (≈ 11 µM) | 1 (≈ 2.74 µM) | 4 (≈ 11 µM) | 0.5 (≈ 1.37 µM) | 8 (≈ 22 µM) | 8 (≈ 22 µM) | CC(=O)NC[C@H]1CN(c2ccc(N3CCNC(=O)CC3)c(F)c2)C(=O)O1 [Example 1, (S)-N-[[3-[3-fluoro-4-(1,2,3,4,6,7-hexahydro-5-oxo-1,4-diazepin-1-yl)phenyl]-2-oxo-5-oxazolidinyl]methyl]acetamide] |
| 1 (≈ 2.54 µM) | < 0.5 | 1 (≈ 2.54 µM) | < 0.5 | 8 (≈ 20.3 µM) | 2 (≈ 5.07 µM) | CC(=S)NC[C@H]1CN(c2ccc(N3CCC(=O)N(C)CC3)c(F)c2)C(=O)O1 [Example 4, (S)-N-[[3-[3-fluoro-4-(1,2,3,4,6,7-hexahydro-4-methyl-5-oxo-1,4-diazepin-1-yl)phenyl]-2-oxo-5-oxazolidinyl]methyl]-thioacetamide] |
| 4 (≈ 10.6 µM) | 1 (≈ 2.64 µM) | 4 (≈ 10.6 µM) | 1 (≈ 2.64 µM) | 32 (≈ 84.6 µM) | 8 (≈ 21.1 µM) | CC(=O)NC[C@H]1CN(c2ccc(N3CCC(=O)N(C)CC3)c(F)c2)C(=O)O1 [Example 3, (S)-N-[[3-[3-fluoro-4-(1,2,3,4,6,7-hexahydro-4-methyl-5-oxo-1,4-diazepin-1-yl)phenyl]-2-oxo-5-oxazolidinyl]methyl]-acetamide] |
